Tested on: HCT-116
Test: Cytotoxicity against human HCT116 cells overexpressing GST-Pi assessed as inhibition of cell viability at 10 uM after 48 hrs by MTT assay relative to control
Format: functional
Conditions: HCT-116, 48 h

Structure (SMILES)	inhibition at 10 µM
COc1ccc(C2CC(c3cccc(Oc4cc(O/N=[N+](\[O-])N5CCCCC5)c([N+](=O)[O-])cc4[N+](=O)[O-])c3)=NN2C(C)=O)cc1OC (stereo not drawn)	80.9%
CCCCOc1ccc(C2CC(c3cccc(Oc4cc(O/N=[N+](\[O-])N5CCOCC5)c([N+](=O)[O-])cc4[N+](=O)[O-])c3)=NN2C(C)=O)cc1OC (stereo not drawn)	75.7%

Tested on: MDA-MB-231
Test: Antiproliferative activity against human MDA-MB-231 cells after 48 hrs by MTT assay relative to control
Format: functional, cell-based
Conditions: MDA-MB-231, 48 h

Structure (SMILES)	IC50
COc1ccc(C2CC(c3cccc(Oc4cc(O/N=[N+](\[O-])N5CCCCC5)c([N+](=O)[O-])cc4[N+](=O)[O-])c3)=NN2C(C)=O)cc1OC (stereo not drawn)	1.37 µM
CCCCOc1ccc(C2CC(c3cccc(Oc4cc(O/N=[N+](\[O-])N5CCOCC5)c([N+](=O)[O-])cc4[N+](=O)[O-])c3)=NN2C(C)=O)cc1OC (stereo not drawn)	4.4 µM

Tested on: HCT-116
Test: Antiproliferative activity against human HCT116 cells after 48 hrs by MTT assay relative to control
Format: functional, cell-based
Conditions: HCT-116, 48 h

Structure (SMILES)	IC50
COc1ccc(C2CC(c3cccc(Oc4cc(O/N=[N+](\[O-])N5CCCCC5)c([N+](=O)[O-])cc4[N+](=O)[O-])c3)=NN2C(C)=O)cc1OC (stereo not drawn)	1.43 µM
CCCCOc1ccc(C2CC(c3cccc(Oc4cc(O/N=[N+](\[O-])N5CCOCC5)c([N+](=O)[O-])cc4[N+](=O)[O-])c3)=NN2C(C)=O)cc1OC (stereo not drawn)	1.86 µM

Tested on: A549
Test: Antiproliferative activity against human A549 cells after 48 hrs by MTT assay relative to control
Format: functional, cell-based
Conditions: A549, 48 h

Structure (SMILES)	IC50
COc1ccc(C2CC(c3cccc(Oc4cc(O/N=[N+](\[O-])N5CCCCC5)c([N+](=O)[O-])cc4[N+](=O)[O-])c3)=NN2C(C)=O)cc1OC (stereo not drawn)	1.02 µM
CCCCOc1ccc(C2CC(c3cccc(Oc4cc(O/N=[N+](\[O-])N5CCOCC5)c([N+](=O)[O-])cc4[N+](=O)[O-])c3)=NN2C(C)=O)cc1OC (stereo not drawn)	1.46 µM

Tested on: U2OS
Test: Antiproliferative activity against human U2OS cells after 48 hrs by MTT assay relative to control
Format: functional, cell-based
Conditions: not given

Structure (SMILES)	IC50
COc1ccc(C2CC(c3cccc(Oc4cc(O/N=[N+](\[O-])N5CCCCC5)c([N+](=O)[O-])cc4[N+](=O)[O-])c3)=NN2C(C)=O)cc1OC (stereo not drawn)	6.74 µM
CCCCOc1ccc(C2CC(c3cccc(Oc4cc(O/N=[N+](\[O-])N5CCOCC5)c([N+](=O)[O-])cc4[N+](=O)[O-])c3)=NN2C(C)=O)cc1OC (stereo not drawn)	2.19 µM

Tested on: MCF-10A
Test: Antiproliferative activity against human MCF10A cells after 48 hrs by MTT assay relative to control
Format: cell-based
Conditions: not given

Structure (SMILES)	IC50
COc1ccc(C2CC(c3cccc(Oc4cc(O/N=[N+](\[O-])N5CCCCC5)c([N+](=O)[O-])cc4[N+](=O)[O-])c3)=NN2C(C)=O)cc1OC (stereo not drawn)	18.7 µM
CCCCOc1ccc(C2CC(c3cccc(Oc4cc(O/N=[N+](\[O-])N5CCOCC5)c([N+](=O)[O-])cc4[N+](=O)[O-])c3)=NN2C(C)=O)cc1OC (stereo not drawn)	15.2 µM

Tested on: not listed separately
Test: Selectivity ratio of IC50 for human MCF10A cells to IC50 for human MDA-MB-231 cells
Format: toxicity
Conditions: MCF10A cells versus MDA-MB-231 cells, read-out: Ratio IC50

Structure (SMILES)	selectivity ratio
COc1ccc(C2CC(c3cccc(Oc4cc(O/N=[N+](\[O-])N5CCCCC5)c([N+](=O)[O-])cc4[N+](=O)[O-])c3)=NN2C(C)=O)cc1OC (stereo not drawn)	13.6
CCCCOc1ccc(C2CC(c3cccc(Oc4cc(O/N=[N+](\[O-])N5CCOCC5)c([N+](=O)[O-])cc4[N+](=O)[O-])c3)=NN2C(C)=O)cc1OC (stereo not drawn)	3.4

Tested on: not listed separately
Test: Selectivity ratio of IC50 for human HCT116 cells to IC50 for human MDA-MB-231 cells
Format: functional
Conditions: not given

Structure (SMILES)	Ratio IC50
COc1ccc(C2CC(c3cccc(Oc4cc(O/N=[N+](\[O-])N5CCCCC5)c([N+](=O)[O-])cc4[N+](=O)[O-])c3)=NN2C(C)=O)cc1OC (stereo not drawn)	1
CCCCOc1ccc(C2CC(c3cccc(Oc4cc(O/N=[N+](\[O-])N5CCOCC5)c([N+](=O)[O-])cc4[N+](=O)[O-])c3)=NN2C(C)=O)cc1OC (stereo not drawn)	0.4

Tested on: not listed separately
Test: Selectivity ratio of IC50 for human A549 cells to IC50 for human MDA-MB-231 cells
Format: functional
Conditions: not given

Structure (SMILES)	Ratio IC50
COc1ccc(C2CC(c3cccc(Oc4cc(O/N=[N+](\[O-])N5CCCCC5)c([N+](=O)[O-])cc4[N+](=O)[O-])c3)=NN2C(C)=O)cc1OC (stereo not drawn)	0.7
CCCCOc1ccc(C2CC(c3cccc(Oc4cc(O/N=[N+](\[O-])N5CCOCC5)c([N+](=O)[O-])cc4[N+](=O)[O-])c3)=NN2C(C)=O)cc1OC (stereo not drawn)	0.3

Tested on: not listed separately
Test: Selectivity ratio of IC50 for human U2OS cells to IC50 for human MDA-MB-231 cells
Format: functional
Conditions: not given

Structure (SMILES)	Ratio IC50
COc1ccc(C2CC(c3cccc(Oc4cc(O/N=[N+](\[O-])N5CCCCC5)c([N+](=O)[O-])cc4[N+](=O)[O-])c3)=NN2C(C)=O)cc1OC (stereo not drawn)	4.9
CCCCOc1ccc(C2CC(c3cccc(Oc4cc(O/N=[N+](\[O-])N5CCOCC5)c([N+](=O)[O-])cc4[N+](=O)[O-])c3)=NN2C(C)=O)cc1OC (stereo not drawn)	0.5

Biological target: T1, Glutathione S-transferase P (Homo sapiens, UniProt P09211)
T1 sequence (P09211 whole entry): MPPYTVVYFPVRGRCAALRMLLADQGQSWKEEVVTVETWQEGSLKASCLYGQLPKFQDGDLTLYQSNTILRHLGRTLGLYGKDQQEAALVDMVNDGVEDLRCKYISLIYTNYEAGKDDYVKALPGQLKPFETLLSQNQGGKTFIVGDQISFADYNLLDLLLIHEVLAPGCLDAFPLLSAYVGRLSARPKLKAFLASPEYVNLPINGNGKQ
Test: Prodrug activation in human HCT116 cells assessed as GST-Pi-mediated NO release at 5 uM by nitrate reductase assay
Format: cell-based
Conditions: not given

Structure (SMILES)	Drug metabolism
CCCCOc1ccc(C2CC(c3cccc(Oc4cc(O/N=[N+](\[O-])N5CCOCC5)c([N+](=O)[O-])cc4[N+](=O)[O-])c3)=NN2C(C)=O)cc1OC (stereo not drawn)	Dose-dependent effect

Biological target: T1, Glutathione S-transferase P
Test: Prodrug activation in human HCT116 cells assessed as GST-Pi-mediated NO release at 5 uM after 24 hrs by nitrate reductase assay
Format: cell-based
Conditions: not given

Structure (SMILES)	Drug metabolism
COc1ccc(C2CC(c3cccc(Oc4cc(O/N=[N+](\[O-])N5CCCCC5)c([N+](=O)[O-])cc4[N+](=O)[O-])c3)=NN2C(C)=O)cc1OC (stereo not drawn)	Metabolite_Detected
CCCCOc1ccc(C2CC(c3cccc(Oc4cc(O/N=[N+](\[O-])N5CCOCC5)c([N+](=O)[O-])cc4[N+](=O)[O-])c3)=NN2C(C)=O)cc1OC (stereo not drawn)	Metabolite_Detected

Organism: Homo sapiens
Test: Inhibition of MDR in human MCF7/ADR cells assessed as potentiation of adriamycin-induced antiproliferative activity by measuring fold reduction in adriamycin IC50 at 10 uM after 48 hrs by MTT assay
Format: cell-based
Conditions: not given

Structure (SMILES)	fold change (FC)
COc1ccc(C2CC(c3cccc(Oc4cc(O/N=[N+](\[O-])N5CCCCC5)c([N+](=O)[O-])cc4[N+](=O)[O-])c3)=NN2C(C)=O)cc1OC (stereo not drawn)	71.7
CCCCOc1ccc(C2CC(c3cccc(Oc4cc(O/N=[N+](\[O-])N5CCOCC5)c([N+](=O)[O-])cc4[N+](=O)[O-])c3)=NN2C(C)=O)cc1OC (stereo not drawn)	63

Biological target: T1, Glutathione S-transferase P
Test: Prodrug activation in human HCT116 cells assessed as GST-Pi-mediated NO release at 5 uM after 24 hrs in presence of NO scavenger carboxy-PTIO by nitrate reductase assay
Format: cell-based
Conditions: not given

Structure (SMILES)	Drug metabolism
COc1ccc(C2CC(c3cccc(Oc4cc(O/N=[N+](\[O-])N5CCCCC5)c([N+](=O)[O-])cc4[N+](=O)[O-])c3)=NN2C(C)=O)cc1OC (stereo not drawn)	Metabolite_Notdetected
CCCCOc1ccc(C2CC(c3cccc(Oc4cc(O/N=[N+](\[O-])N5CCOCC5)c([N+](=O)[O-])cc4[N+](=O)[O-])c3)=NN2C(C)=O)cc1OC (stereo not drawn)	Metabolite_Notdetected

Biological target: T1, Glutathione S-transferase P
Test: Prodrug activation in human HCT116 cells assessed as GST-Pi-mediated NO release at 5 uM after 24 hrs in presence of GST-Pi inhibitor etacrynic acid by nitrate reductase assay
Format: cell-based
Conditions: not given

Structure (SMILES)	Drug metabolism
COc1ccc(C2CC(c3cccc(Oc4cc(O/N=[N+](\[O-])N5CCCCC5)c([N+](=O)[O-])cc4[N+](=O)[O-])c3)=NN2C(C)=O)cc1OC (stereo not drawn)	Metabolite_Notdetected
CCCCOc1ccc(C2CC(c3cccc(Oc4cc(O/N=[N+](\[O-])N5CCOCC5)c([N+](=O)[O-])cc4[N+](=O)[O-])c3)=NN2C(C)=O)cc1OC (stereo not drawn)	Metabolite_Notdetected

Tested on: not listed separately
Test: Cytotoxicity against ADR-sensitive human MCF7 cells assessed as inhibition of cell viability at 10 uM after 48 hrs by MTT assay relative to control
Format: cell-based
Conditions: read-out: INH

Structure (SMILES)	cytotoxicity at 48 h, 10 µM
COc1ccc(C2CC(c3cccc(Oc4cc(O/N=[N+](\[O-])N5CCCCC5)c([N+](=O)[O-])cc4[N+](=O)[O-])c3)=NN2C(C)=O)cc1OC (stereo not drawn)	17.2%
CCCCOc1ccc(C2CC(c3cccc(Oc4cc(O/N=[N+](\[O-])N5CCOCC5)c([N+](=O)[O-])cc4[N+](=O)[O-])c3)=NN2C(C)=O)cc1OC (stereo not drawn)	23.6%

Tested on: MCF7
Test: Cytotoxicity against ADR-sensitive human MCF7 cells assessed as inhibition of cell viability after 48 hrs by MTT assay
Format: cell-based
Conditions: MCF7, 48 h

Structure (SMILES)	IC50
COc1ccc(C2CC(c3cccc(Oc4cc(O/N=[N+](\[O-])N5CCCCC5)c([N+](=O)[O-])cc4[N+](=O)[O-])c3)=NN2C(C)=O)cc1OC (stereo not drawn)	25.2 µM
CCCCOc1ccc(C2CC(c3cccc(Oc4cc(O/N=[N+](\[O-])N5CCOCC5)c([N+](=O)[O-])cc4[N+](=O)[O-])c3)=NN2C(C)=O)cc1OC (stereo not drawn)	19.2 µM

— ChEMBL document CHEMBL4138232, “O2-(2,4-dinitrophenyl)diazeniumdiolates derivatives: Design, synthesis, cytotoxic evaluation and reversing MDR in MCF-7/ADR cells” (Eur J Med Chem, 2018)
